Where no end group is shown, it is not given here.
Legend:
Assay type in all cases: cell-based, Pseudomonas aeruginosa
[1] = tested on: P. aeruginosa PAO1 biofilms; assay: Antibiofilm activity of BmKn-22 and azithromycin alone or in combination, crystal violet
Method: The effect of BmKn‒2 peptide and derivatives on biofilm formation of P. aeruginosa PAO1 was determined according to the method published previously with some modifications. Briefly, 100 μL of the test peptides was plated into the wells of flat-bottomed 96-well microtiter plates (Nunc™, Roskilde, Denmark) at the final concentrations of 200 ‒ 800 μM. Aliquots of the P. aeruginosa PAO1 suspension were then inoculated to the wells of 96-well microtiter plates to obtain a final concentration of 10^6 CFU/mL. Culture without the test peptides was used as the untreated control. After incubation at 37 ^OC for 24 h without agitation, planktonic cells were removed and the plates were gently rinsed twice with phosphate buffered saline (PBS) pH 7.4. Biofilms were then stained with 0.1% crystal violet solution (Merck, Darmstadt, Germany) for 10 minutes at room temperature. Excess stains were rinsed off with PBS pH 7.4 and the plates were left dry at 37 ^OC for 2 h. Subsequently, biofilm biomass was solubilized with 30% acetic acid and the optical density (OD) measured at 550 nm using a microplate reader (BioTek Synergy HT).
Briefly, P. aeruginosa PAO1 suspension (10^6 CFU/mL, final concentration) was added to the wells of flat-bottomed 96-well microtiter plates (Nunc) containing the test peptide, azithromycin (AZM; Sigma) alone or in combinations. […] Biofilm formation was employed by measuring biofilm biomass stained with crystal violet as a protocol described in previous section.

[2] = tested on: rhlR mRNA; assay: qRT-PCR of quorum sensing-related gene rhlR; conditions: 800 µM, 10 h
Method: (§1) The effects of BmKn‒22 peptide on the expression of quorum sensing‒related genes in P. aeruginosa PAO1 were assessed by qPCR. Briefly, bacterial suspension at approximately 10^7 CFU/mL was cultured in the presence or absence of the test peptide (800 μM, final concentration) at 37 ^OC for 10 h using a shaking incubator. After centrifugation at 4,500 rpm for 10 minutes, the bacterial cells were harvested and subsequently subjected to total RNA extraction using TRIzol® reagent (Invitrogen, USA) as per the manufacturer’s instruction. The concentration of the extracted RNA was measured using Nanodrop spectrophotometer (NanoDrop Technologies, USA). Thereafter, 1 μg of extracted RNA was reverse-transcribed into cDNA using Random Hexamer primer and RevertAid First Strand cDNA synthesis kit (Fermantas), which was amplified by real-time PCR. The primers for the genes lasI, lasR, RhlI, RhlR and 16S rRNA were used (Table 2). All primers were synthesized by the Integrated DNA Technology (IDT), Canada. The reaction mixture consisted of 1× AccuPower® 2X GreenStar™ qPCR Master Mix, 0.4 μmol/L each forward primer and reverse primer and 1 μL of cDNA in a final volume of 10 μL. Thermal cycles used was 95 ^OC for 2.5 min, followed by 40 cycles of 95 ^OC for 30 sec, 60 ^OC for 30 sec and 72 ^OC for 30 sec. The expression level of the target gene was normalized to 16S rRNA gene. Relative expression of the target genes was obtained from 2^‒ΔΔct.

[3] = tested on: P. aeruginosa PAO1; assay: Growth assay, standard plate counts; conditions: 800 µM, 24 h
Method: The effects of BmKn‒2 peptide and its derivatives on growth of P. aeruginosa PAO1 were carried out as described previously with some modifications. Bacterial suspension (10^6 CFU/mL) and the test peptides (800 μM, final concentration) were incubated at 37 ^OC at 150 rpm. Bacterial culture without the test peptides was used as the untreated control. After 24 h, bacterial concentration was evaluated. Cultures from each treatment were taken and 10-fold serial dilution was performed; 100 μL of each dilution was then spread on LB agar plates. Following incubation at 37°C for 24 h, the colonies were counted and expressed as log10 CFU/mL.

[4] = tested on: lasI mRNA; assay: qRT-PCR of quorum sensing-related gene lasI; conditions: 800 µM, 10 h
Method: as §1

[5] = tested on: lasR mRNA; assay: qRT-PCR of quorum sensing-related gene lasR; conditions: 800 µM, 10 h
Method: as §1

[6] = tested on: pyocyanin production of P. aeruginosa PAO1; assay: Pyocyanin assay, chloroform extraction
Method: Pyocyanin pigments produced by P. aeruginosa PAO1 after exposure to the BmKn‒22 peptide were determined according to the protocol described previously. Briefly, 750 μL of P. aeruginosa suspension (10^7 CFU/mL, final concentration) was mixed with 250 μL of LB broth containing the test peptide at final concentrations of 200 ‒ 800 μM and incubated at 37 ^OC for 24 hours with agitation (150 rpm). Control culture without the test peptide was simultaneously propagated. After centrifugation at 4,500 rpm for 10 minutes, supernatant was collected and pyocyanin was extracted with chloroform followed by 0.2 N HCl. The suspension was centrifuged once at 4,500 rpm for 10 minutes, and the pink phase layer was subjected to optical density determination at […] using a microplate reader (BioTek Synergy HT).

[7] = normalized to 16S rRNA, 2^-ΔΔct, untreated control = 1, mean of 2 independent experiments in quadruplicate

FIGAIARLLSK [BmKn-22] was tested, and the biofilm reduction ([1]; BmKn-22 at 200 µM combined with 64 µg/mL azithromycin (1/2 MIC)) was “Up to 51.39%”, the biofilm reduction ([1]; BmKn-22 at 400 µM combined with 64 µg/mL azithromycin (1/2 MIC)) was no more than 62.05% and the biofilm reduction ([1]; BmKn-22 at 800 µM combined with 64 µg/mL azithromycin (1/2 MIC)) was 96.97%. For the same sequence, the “Biofilm biomass (% control)” value ([1]; peptide alone 200 µM, 24 h, 37 °C, crystal violet, mean of 3 independent experiments) was 80.903 % control, the “Biofilm biomass (% control)” value ([1]; peptide alone 200 µM, Exp. 1) was 94.033 % control and the “Biofilm biomass (% control)” value ([1]; peptide alone 200 µM, Exp. 2) was 82.424 % control. For the same sequence, the “Biofilm biomass (% control)” value ([1]; peptide alone 200 µM, Exp. 3) was 66.251 % control, the “Biofilm biomass (% control)” value ([1]; peptide alone 400 µM, 24 h, 37 °C, crystal violet, mean of 3 independent experiments) was 67.309 % control and the “Biofilm biomass (% control)” value ([1]; peptide alone 400 µM, Exp. 1) was 75.858 % control. The “Biofilm biomass (% control)” value ([1]; peptide alone 400 µM, Exp. 2) was 68.773 % control, the “Biofilm biomass (% control)” value ([1]; peptide alone 400 µM, Exp. 3) was 57.297 % control and the “Biofilm biomass (% control)” value ([1]; peptide alone 800 µM, 24 h, 37 °C, crystal violet, mean of 3 independent experiments) was 43.753 % control. For the same sequence, the “Biofilm biomass (% control)” value ([1]; peptide alone 800 µM, Exp. 1) was 51.716 % control, the “Biofilm biomass (% control)” value ([1]; peptide alone 800 µM, Exp. 2) was 46.698 % control and the “Biofilm biomass (% control)” value ([1]; peptide alone 800 µM, Exp. 3) was 32.845 % control. The “Relative mRNA expression, rhlR” value [2, 7] was 0.511, the “Relative mRNA expression, rhlR” value ([2]; Exp. 1) was 0.408 and the “Relative mRNA expression, rhlR” value ([2]; Exp. 2) was 0.614. The “mRNA expression of rhlR” value ([2]; result in words) was “significantly (P < 0.05) decreased”, the “Bacterial growth, Log10 CFU/mL” value ([3]; 37 °C, 150 rpm, plate counts, untreated control 9.183, mean of 3 independent experiments) was 9.323 Log10 CFU/mL and the “effect on bacterial counts (growth)” value ([3]; compared with untreated control, result in words) was “no significant (P > 0.05) differences in bacterial counts”. For the same sequence, the “Bacterial growth, Log10 CFU/mL” value ([3]; Exp. 1 (untreated control 9.082)) was 9.235 Log10 CFU/mL, the “Bacterial growth, Log10 CFU/mL” value ([3]; Exp. 2 (untreated control 9.198)) was 9.292 Log10 CFU/mL and the “Bacterial growth, Log10 CFU/mL” value ([3]; Exp. 3 (untreated control 9.268)) was 9.443 Log10 CFU/mL. For the same sequence, the “Relative mRNA expression, lasI” value [4, 7] was 0.403, the “Relative mRNA expression, lasI” value ([4]; Exp. 1) was 0.314 and the “Relative mRNA expression, lasI” value ([4]; Exp. 2) was 0.491. The “mRNA expression of lasI” value ([4]; result in words) was “significantly (P < 0.05) decreased”, the “Relative mRNA expression, lasR” value [5, 7] was 0.949 and the “Relative mRNA expression, lasR” value ([5]; Exp. 1) was 0.732. The “Relative mRNA expression, lasR” value ([5]; Exp. 2) was 1.166, the “mRNA expression of lasR” value ([5]; result in words) was “no alteration” and the “Pyocyanin production (% control)” value ([6]; 200 µM, 37 °C, 24 h, 150 rpm, OD 380 nm, mean of 3 independent experiments) was 47.395 % control. For the same sequence, the “Pyocyanin production (% control)” value ([6]; 200 µM, Exp. 1) was 62.849 % control, the “Pyocyanin production (% control)” value ([6]; 200 µM, Exp. 2) was 40.419 % control and the “Pyocyanin production (% control)” value ([6]; 200 µM, Exp. 3) was 38.918 % control. For the same sequence, the “Pyocyanin production (% control)” value ([6]; 400 µM, 37 °C, 24 h, 150 rpm, OD 380 nm, mean of 3 independent experiments) was 48.157 % control, the “Pyocyanin production (% control)” value ([6]; 400 µM, Exp. 1) was 59.310 % control and the “Pyocyanin production (% control)” value ([6]; 400 µM, Exp. 2) was 37.273 % control. For the same sequence, the “Pyocyanin production (% control)” value ([6]; 400 µM, Exp. 3) was 47.889 % control, the “Pyocyanin production (% control)” value ([6]; 800 µM, 37 °C, 24 h, 150 rpm, OD 380 nm, mean of 3 independent experiments) was 60.164 % control and the “Pyocyanin production (% control)” value ([6]; 800 µM, Exp. 1) was 68.994 % control. For the same sequence, the “Pyocyanin production (% control)” value ([6]; 800 µM, Exp. 2) was 42.898 % control and the “Pyocyanin production (% control)” value ([6]; 800 µM, Exp. 3) was 68.601 % control.

Reference: publication PMC6568410, “A scorpion venom peptide derivative BmKn‒22 with potent antibiofilm activity against Pseudomonas aeruginosa” (PLoS ONE, 2019)
